Experimental data from patent publication US12060347B2 (BRISTOL-MYERS SQUIBB COMPANY, priority 2016, dated 2024).

Target: T1, human PAR4 (Homo sapiens, UniProt Q96RI0)
T1 construct: expressed in transfected cells; host or cells: HEK293 PAR4 Clone 1.2A (BMS Arctic ID 383940)
T1 sequence (Q96RI0 18-385): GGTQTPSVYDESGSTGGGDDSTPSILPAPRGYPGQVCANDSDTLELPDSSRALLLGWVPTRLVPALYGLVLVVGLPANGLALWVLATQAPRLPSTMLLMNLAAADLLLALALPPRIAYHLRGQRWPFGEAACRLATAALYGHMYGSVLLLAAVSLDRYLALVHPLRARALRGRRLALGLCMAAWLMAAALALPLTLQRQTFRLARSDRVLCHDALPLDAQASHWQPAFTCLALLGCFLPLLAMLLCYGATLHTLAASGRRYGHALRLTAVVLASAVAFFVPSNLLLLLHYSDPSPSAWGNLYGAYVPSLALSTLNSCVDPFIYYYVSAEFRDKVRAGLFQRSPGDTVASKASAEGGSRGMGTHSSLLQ
Test: PAR4 FLIPR assay: antagonism of agonist-peptide-induced calcium mobilization in PAR4-expressing HEK293 cells
Type: cell-based
Conditions: H-Ala-Phe(4-F)-[…]NH2-induced intracellular calcium mobilization, 11-point curves

Row | IC50 | SMILES
1 | 3.4 nM | COc1cnc2c(-c3nc4cc(F)c(O[C@@H](C)[C@@H](C)OC(=O)Nc5ccc(C(C)O)nc5)nc4s3)cc(C)cc2n1 (single isomer, unassigned) [Example 767]
2 | 1.9 nM | COc1cc(C(O)C2(C)CCCCC2)c2nc(-c3cc(C)cc4nc(OC)cnc34)sc2c1 (centres unmarked) [Example 672, (6-methoxy-2-(2-methoxy-7-methylquinoxalin-5-yl)benzo[d]thiazol-4-yl)(1-methylcyclohexyl)methanol]
3 | 22 nM | COc1cnc2c(-c3nc4cc(F)c(OC)nc4s3)cc(C)cc2n1 [Example 182, 6-fluoro-5-methoxy-2-(2-methoxy-7-methylquinoxalin-5-yl)thiazolo[5,4-b]pyridine]
4 | 21 nM | COc1cc(C)c2nc(-c3cc(C#N)cc4nc(OC)cnc34)sc2c1 [Example 211, 3-methoxy-8-(6-methoxy-4-methylbenzo[d]thiazol-2-yl)quinoxaline-6-carbonitrile]
5 | 2.2 nM | COc1cnc2c(-c3nc4cc(F)c(O[C@@H](C)[C@@H](C)OC(=O)Nc5cncc(C#N)c5)cc4s3)cc(Cl)cc2c1 [Example 786, (2R,3S)-3-((2-(6-chloro-3-methoxyquinolin-8-yl)-5-fluorobenzo[d]thiazol-6-yl)oxy)butan-2-yl (5-cyanopyridin-3-yl)carbamate]
6 | 1.7 nM | COCc1cnc2c(-c3nc4c(C5CC5)cc(OCCNS(=O)(=O)c5ccccc5)cc4s3)cc(C)cc2n1 [Example 104, N-(2-(4-cyclopropyl-2-(2-(methoxymethyl)-7-methylquinoxalin-5-yl)benzo[d]thiazol-6-yloxy)ethyl)benzenesulfonamide]
7 | 0.3 nM | COC(=O)c1ccc(NC(=O)O[C@H](C)COc2nc3sc(-c4cc(C)cc5nc(OC)cnc45)nc3cc2F)cn1 [Example 690, methyl (R)-5-((((1-((6-fluoro-2-(2-methoxy-7-methylquinoxalin-5-yl)thiazolo[5,4-b]pyridin-5-yl)oxy)propan-2-yl)oxy)carbonyl)amino)picolinate]
8 | 3.2 nM | COCc1cnc2c(-c3nc4ccc(F)cc4s3)cc(C)cc2n1 [Example 272, 6-fluoro-2-(2-(methoxymethyl)-7-methylquinoxalin-5-yl)benzo[d]thiazole]
9 | 1.1 nM | COc1cnc2c(-c3nc4cc(F)c(OC[C@@H](C)OC(=O)Nc5cnc(C(=O)N(C)C)nc5)cc4s3)cc(C)cc2n1 [Example 431, (R)-1-((5-fluoro-2-(2-methoxy-7-methylquinoxalin-5-yl)benzo[d]thiazol-6-yl)oxy)propan-2-yl (2-(dimethylcarbamoyl)pyrimidin-5-yl)carbamate]
10 | 1.1 nM | COc1cnc2c(-c3nc4cc(F)c(O[C@@H](C)[C@@H](C)OC(=O)Nc5cnc(C)nc5)cc4s3)cc(OC)cc2c1 [Example 657, (2R,3S)-3-((2-(3,6-dimethoxyquinolin-8-yl)-5-fluorobenzo[d]thiazol-6-yl)oxy)butan-2-yl (2-methylpyrimidin-5-yl)carbamate]
11 | 3.6 nM | COCc1cnc2c(-c3nc4c(OC)c(F)c(F)cc4s3)cc(C)cc2n1 [Example 269, 5,6-difluoro-4-methoxy-2-(2-(methoxymethyl)-7-methylquinoxalin-5-yl)benzo [d]thiazole]
12 | 220 nM | Cc1cc(-c2cc3cc(OCc4ccccc4)ccc3o2)c2ncc(OC(F)F)nc2c1 [Example 44, 5-(5-(benzyloxy)benzofuran-2-yl)-2-(difluoromethoxy)-7-methylquinoxaline]
13 | 4.2 nM | COc1cnc2c(-c3nc4cc(F)c(O[C@@H](C)[C@@H](C)OC(=O)Nc5cccnc5)cc4s3)cc(C)cc2n1 [Example 423, (2R,3S)-3-((5-fluoro-2-(2-methoxy-7-methylquinoxalin-5-yl)benzo[d]thiazol-6-yl)oxy)butan-2-yl pyridin-3-ylcarbamate]
14 | 41 nM | Cc1cc(-c2nc3ccc(OCCNC(=O)OCC4CCCO4)cc3s2)c2ncc(OC(F)F)nc2c1 (centres unmarked) [Example 19, (Tetrahydrofuran-2-yl)methyl (2-((2-(2-(difluoromethoxy)-7-methylquinoxalin-5-yl)benzo[d]thiazol-6-yl)oxy)ethyl)carbamate]
15 | 5.3 nM | CCOc1cnc2c(-c3nc4cc(F)c(O[C@@H](C)[C@@H](C)OC(=O)Nc5cnc(OC[C@H](C)O)nc5)cc4s3)cc(C)cc2n1 [Example 582, (2R,3S)-3-((2-(2-ethoxy-7-methylquinoxalin-5-yl)-5-fluorobenzo[d]thiazol-6-yl)oxy)butan-2-yl (2-((S)-2-hydroxypropoxy)pyrimidin-5-yl)carbamate]
16 | 6.4 nM | CCOc1cnc2c(-c3nc4cc(F)c(OC[C@@H](C)OC(=O)Nc5cnc(OC[C@@H](C)O)nc5)nc4s3)cc(C)cc2n1 [Example 815, (R)-1-((2-(2-ethoxy-7-methylquinoxalin-5-yl)-6-fluorothiazolo[5,4-b]pyridin-5-yl)oxy) propan-2-yl (2-((R)-2-hydroxypropoxy)pyrimidin-5-yl)carbamate]

Row | IC50 | SMILES
17 | 210 nM | COc1cnc2c(-c3nc4c(Cl)c(F)c(OCCOC(=O)NCc5cn(C)cn5)cc4s3)cc(C)cc2n1 [Example 397, 2-((4-chloro-5-fluoro-2-(2-methoxy-7-methylquinoxalin-5-yl)benzo[d]thiazol-6-yl)oxy)ethyl ((1-methyl-1H-imidazol-4-yl)methyl)carbamate]
18 | 3.2 nM | COc1cc(C(O)C2(C)CCCCC2)c2nc(-c3cc(C)cc4nc(OC)cnc34)sc2c1 (centres unmarked) [Example 676, (6-methoxy-2-(2-methoxy-7-methylquinoxalin-5-yl)benzo[d]thiazol-4-yl)(1-methylcyclohexyl)methanol]
19 | 2.5 nM | COc1cnc2c(-c3nc4c(Cl)c(F)c(OCCOC(=O)Nc5ccncc5)cc4s3)cc(C)cc2n1 [Example 335, 2((4-chloro-5-fluoro-2-(2-methoxy-7-methylquinoxalin-5-yl)benzo[d]thiazol-6-yl)oxy)ethyl pyridin-4-ylcarbamate]
20 | 550 nM | COc1cnc2c(-c3nc4c(Cl)c(F)c(OCCOC(=O)Nc5nnc(C)o5)cc4s3)cc(C)cc2n1 [Example 366, 2-((4-chloro-5-fluoro-2-(2-methoxy-7-methylquinoxalin-5-yl)benzo[d]thiazol-6-yl)oxy)ethyl (5-methyl-1,3,4-oxadiazol-2-yl) carbamate]
21 | 2.1 nM | COc1ccc2nc(-c3cc(C)cc4nc(OC(F)F)cnc34)sc2c1 [Example 48, 2-(2-(difluoromethoxy)-7-methylquinoxalin-5-yl)-6-methoxybenzo[d]thiazole]
22 | 2.2 nM | COc1cnc2c(-c3nc4cc(F)c(O[C@@H](C)[C@@H](C)OC(=O)Nc5ccc(CO)nc5)cc4s3)cc(Cl)cc2n1 [Example 831, (2R,3S)-3-((2-(7-chloro-2-methoxyquinoxalin-5-yl)-5-fluorobenzo[d]thiazol-6-yl)oxy)butan-2-yl (6-(hydroxymethyl)pyridin-3-yl)carbamate]
23 | 62 nM | Cc1cc(-c2nc3c(C)cc(OCCNS(=O)(=O)c4ccc(F)cc4)cc3s2)c2ncc(C3CC3)nc2c1 [Example 91, N-(2-(2-(2-cyclopropyl-7-methylquinoxalin-5-yl)-4-methylbenzo[d]thiazol-6-yloxy)ethyl)-4-fluorobenzenesulfonamide]
24 | 29 nM | Cc1cc(-c2cc3ccccc3o2)c2ncc(OC(F)F)nc2c1 [Example 1, 5-(benzofuran-2-yl)-2-(difluoromethoxy)-7-methylquinoxaline]
25 | 1.6 nM | COc1cnc2c(-c3nc4cc(F)c(O[C@@H](C)[C@@H](C)OC(=O)Nc5ccc(OCC(F)(F)CO)nc5)cc4s3)cc(C)cc2n1 [Example 573, (2R,3S)-3-((5-fluoro-2-(2-methoxy-7-methylquinoxalin-5-yl)benzo[d]thiazol-6-yl)oxy)butan-2-yl (6-(2,2-difluoro-3-hydroxypropoxy)pyridin-3-yl)carbamate]
26 | 2.9 nM | Cc1cc(-c2nc3ccc(OCCNS(=O)(=O)c4ccccc4)cc3s2)c2ncc(OC(F)F)nc2c1 [Example 63, N-(2-(2-(2-(difluoromethoxy)-7-methylquinoxalin-5-yl)benzo[d]thiazol-6-yloxy)ethyl) benzenesulfonamide]
27 | 4.7 nM | COc1ccc2oc(-c3cc(C)cc4nc(OC)cnc34)cc2c1 [Example 56, 2-methoxy-5-(5-methoxybenzofuran-2-yl)-7-methylquinoxaline]
28 | 38 nM | Cc1cc(-c2nc3cccc(OCc4cscn4)c3s2)c2ncc(OC(F)F)nc2c1 [Example 15, 2-(2-(difluoromethoxy)-7-methylquinoxalin-5-yl)-7-(thiazol-4-ylmethoxy)benzo[d]thiazole]
29 | 31 nM | COCc1cccc2nc(-c3cc(C)cc4nc(OC(F)F)cnc34)sc12 [Example 65, 2-(2-(difluoromethoxy)-7-methylquinoxalin-5-yl)-7-(methoxymethyl)benzo[d]thiazole]
30 | 39 nM | COCCOc1cccc2nc(-c3cc(C)cc4nc(OC)cnc34)sc12 [Example 78, 2-(2-methoxy-7-methylquinoxalin-5-yl)-7-(2-methoxyethoxy)benzo[d]thiazole]
31 | 3.6 nM | CNc1cnc2c(-c3nc4cc(F)c(O[C@@H](C)[C@@H](C)OC(=O)Nc5cnc(C)nc5)cc4s3)cc(C)cc2n1 [Example 390, (2R,3S)-3-((5-fluoro-2-(7-methyl-2-(methylamino)quinoxalin-5-yl)benzo[d]thiazol-6-yl)oxy)butan-2-yl (2-methylpyrimidin-5-yl)carbamate]
32 | 1.4 nM | COCc1cnc2c(-c3nc4c(C(O)C(C)(C)C)c(C)c(OC)cc4s3)cc(C)cc2n1 (racemic) [Example 328, 1-(6-methoxy-2-(2-(methoxymethyl)-7-methylquinoxalin-5-yl)-5-methylbenzo[d]thiazol-4-yl)-2,2-dimethylpropan-1-ol]
